Drawing on ChEMBL document CHEMBL5727861, “Compounds and methods for the enhanced degradation of targeted proteins” (2020), this text covers Kd for 1 molecule.

The experiment deals with von Hippel-Lindau disease tumor suppressor (Homo sapiens, UniProt P40337). The experiment can be described thus: Compounds were transferred from the stock plate to the assay plate and diluted into running buffer containing no DMSO. All compounds were run as a six-concentration series with a final assay top concentration of 100 uM. Data analysis was performed in Scrubber 2 (BioLogic software, Campbell, Australia). Blanks were subtracted and data was corrected for DMSO using a standard DMSO curve.
von Hippel-Lindau disease tumor suppressor, sequence (P40337 whole entry): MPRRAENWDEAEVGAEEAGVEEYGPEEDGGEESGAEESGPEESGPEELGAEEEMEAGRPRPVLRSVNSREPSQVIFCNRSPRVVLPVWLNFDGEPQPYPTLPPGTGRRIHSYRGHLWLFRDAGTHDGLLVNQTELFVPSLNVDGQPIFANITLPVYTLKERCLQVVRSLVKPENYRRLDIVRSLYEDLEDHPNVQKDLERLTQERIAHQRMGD

In the case of `COc1cc([C@H](C(=O)N2C[C@H](O)C[C@H]2C(=O)NCc2ccc(-c3scnc3C)cc2)C(C)C)on1`, the Kd worked out at 13 µM.
